Paper PMC10111420, “Optimization of Host Cell-Compatible, Antimicrobial Peptides Effective against Biofilms and Clinical Isolates of Drug-Resistant Bacteria” (ACS Infectious Diseases, 2023)
Values after ≈ are worked out from the molar mass of the structure shown. Read-outs that look alike come from different tables or passages of the source. Where a SMILES comes first, the peptide text is derived from it. [ ]: non-standard residue; d: D form. d(hArg) = N=C(N)NCCCC[C@@H](N)C(=O)O

Key:
[1] = system: MRSA SAP400, a USA400 strain; assay: microbe, parasite or virus in culture; settings: Staphylococcus aureus, read-out: MIC, MRSA USA400
Description: (§1) Subcultures, prepared by inoculating 25 mL of fresh tryptic soy broth (TSB) with 200 μL of an overnight culture, were grown to log phase (OD600 = 0.3–0.6), after which cell counts were determined by measuring the OD600 (1.0 = 5 × 10^8 CFU/mL for E. coli, 4 × 10^8 CFU/mL for K. pneumoniae, 4 × 10^8 CFU/mL for P. aeruginosa, 1.5 × 10^8 CFU/mL for S. aureus). Bacterial cells were diluted to appropriate concentrations in TSB. We used the following clinical bacterial isolates of Klebsiella pneumoniae in this study: Strains KP6, KP46, NDM-1, KP396, and KP398 have been previously described.[43] ST58 strains C2, C3, and I2 are also described.[41] […] MRSA, […] S. aureus strain, is SAP400, a USA400 strain of community-acquired MRSA. […] The second independent set of K. pneumoniae isolates are previously described.[20],[21]
(§2) The antibiotics were serially diluted by a factor of 2:3 horizontally across 96-well plates from Corning, 25 μL per well. One column was reserved for controls. For the assays performed in the presence of RBC, type O+ human RBCs at 0 or 2.5 × 10^9 cells/mL were added in 50 μL aliquots to all wells. Following a 30-min incubation, 50 μL of TSB, inoculated with 5 × 10^5 CFU/mL, was added to all wells, and plates were incubated overnight at 37 °C. Following overnight incubation at 37 °C, the OD600 was measured (values of less than 0.1 were considered sterilized). To assess bacterial growth in the assays with RBC, the OD600 was measured after a second-day inoculation with 10 μL of solution from the original plate added to 100 μL of sterile TSB followed by overnight incubation.
(§3) Experiments were repeated four to eight times independently, with pairs of replicate measurements on each 96-well plate. After overnight growth, optical densities were measured at 660 nm and the sterilized wells were identified by having O.D. < 0.08. Nonsterilized wells were nearly opaque with OD > 0.6. For each measurement, we recorded the largest dilution that sterilized the bacteria. Statistics are done on dilution numbers, rather than calculated concentrations, because only the former have normal distributions.

[2] = system: Pseudomonas aeruginosa clinical isolates; assay: microbe, parasite or virus in culture; settings: Pseudomonas aeruginosa
Description: as §1, §2, §3

[3] = system: Acinetobacter baumannii (PDR) Tulane isolate; assay: microbe, parasite or virus in culture; settings: read-out: MIC, AB (PDR)Tulane
[4] = system: 14 clinical isolates of resistant bacterial strains; assay: Broth dilution, summary over the 14 clinical isolates of the first set; assay type: cell-based; settings: statement for all 14 clinical isolates of the first set; read-out: MIC, all isolates (completely resistant)
Description: In Figure 4B, we plot the fraction of isolates sterilized as functions of antibiotic concentration.
as §1, §2

[5] = system: K. pneumoniae clinical isolates; assay: microbe, parasite or virus in culture; settings: Klebsiella pneumoniae
Description: as §1
as §2, with “Following a 30-min incubation, 50 μL of TSB, inoculated with 5 × 10^5 CFU/mL, was added to all wells, and plates were incubated overnight at 37 °C. Following overnight incubation at 37 °C, the OD600 was measured (values of less than 0.1 were considered sterilized).” left out
as §3

[6] = system: human RBCs; assay type: cell-based
Description: Human O+ erythrocytes were obtained from Interstate Blood Bank, Inc. Red blood cells were subjected to four or more cycles of centrifugation at 1000g with resuspension in fresh PBS. Following the final wash step, the supernatant was clear and colorless. RBC concentration was determined using a standard hemocytometer.
Peptide was serially diluted in PBS starting at a concentration of 100 μM. The final volume of peptide in each well was 50 μL. To each well, 50 μL of RBCs in PBS at 2 × 10^8 cells/mL was added. As a positive lysis control, 1% Triton was used. The mixtures were incubated at 37 °C for 1 h, after which they were centrifuged at 1000g for 5 min. After centrifugation, 10 μL of supernatant was transferred to 90 μL of DI H2O in a fresh 96-well plate. The absorbance of released hemoglobin at 410 nm was recorded, and the fractional hemolysis was calculated based on the 100 and 0% lysis controls. At least three independent experiments were performed. Results shown are averages.

[7] = system: WI-38 human fibroblast cells; assay: in vitro; assay type: cell-based
Description: The day before cytotoxicity experiments, the 10,000 cells/well were plated in a 96-well tissue-culture plate. […] To perform the cytotoxicity assay, media was removed from the wells and replaced with peptide solutions. […] The plate was read for SYTOX fluorescence every 5 min for an hour with an excitation wavelength of 504 nm and an emission wavelength of 523 nm. Percent cytotoxicity was calculated at 60 min using the 100 and 0% lysis controls. At least three independent experiments were averaged.

[8] = ATCC33495, read-out: MIC, KP ATCC 33495

MIC [1]	MIC ([2]; read-out: MIC, PA(mucoid))	MIC ([2]; read-out: MIC, PA(non-mucoid))	MIC [3]	MIC [4]	MIC [5, 8]	MIC ([5]; read-out: MIC, KP 6)	MIC ([5]; read-out: MIC, KP 46)	MIC ([5]; read-out: MIC, KP 398)	MIC ([5]; read-out: MIC, KP 2146NDM-1)	MIC ([5]; read-out: MIC, KP (CRE))	MIC ([5]; read-out: MIC, KP ST258 C2)	MIC ([5]; read-out: MIC, KP ST258 C3)	MIC ([5]; read-out: MIC, KP ST258 I2)	MIC ([5]; read-out: MIC, KP ST396)	Structure (SMILES)	Hemolysis at 100 μM (fractional hemolysis) [6]	EC50 [7]
> 150 µM	> 150 µM	> 150 µM	> 150 µM	> 150 µM											CC1(C)S[C@@H]2[C@H](NC(=O)[C@H](N)c3ccccc3)C(=O)N2[C@H]1C(=O)O [AMP, ampicillin]		
> 150 µM	116 µM (≈ 63.4 µg/mL)	> 150 µM	> 150 µM	> 150 µM	> 150 µM	> 150 µM	> 150 µM	133 µM (≈ 72.7 µg/mL)	> 150 µM	> 150 µM	> 150 µM	> 150 µM	> 150 µM	> 150 µM	CC(C)(O/N=C(\C(=O)N[C@@H]1C(=O)N2C(C(=O)[O-])=C(C[n+]3ccccc3)CS[C@H]12)c1csc(N)n1)C(=O)O [CAZ, ceftazidime]		
0.8 µM (≈ 0.265 µg/mL)			> 150 µM												O=C(O)c1cn(C2CC2)c2cc(N3CCNCC3)c(F)cc2c1=O [CIPRO, ciprofloxacin]		
> 150 µM	137 µM (≈ 76 µg/mL)	89 µM (≈ 49.4 µg/mL)	> 150 µM		0.3 µM (≈ 0.166 µg/mL)	> 150 µM	1.9 µM (≈ 1.05 µg/mL)	0.2 µM (≈ 0.111 µg/mL)	> 150 µM	45 µM (≈ 25 µg/mL)	> 150 µM	> 150 µM	> 150 µM	1.9 µM (≈ 1.05 µg/mL)	CO/N=C(\C(=O)N[C@@H]1C(=O)N2C(C(=O)O)=C(CSc3nc(=O)c(=O)[nH]n3C)CS[C@H]12)c1csc(N)n1 [CRO, ceftriaxone]		
> 150 µM	13.3 µM (≈ 5.1 µg/mL)	4 µM (≈ 1.53 µg/mL)	> 150 µM		0.2 µM (≈ 0.0767 µg/mL)	0.2 µM (≈ 0.0767 µg/mL)	0.4 µM (≈ 0.153 µg/mL)	0.2 µM (≈ 0.0767 µg/mL)	> 150 µM	108 µM (≈ 41.4 µg/mL)	> 150 µM	> 150 µM	> 150 µM	0.3 µM (≈ 0.115 µg/mL)	C[C@@H](O)[C@H]1C(=O)N2C(C(=O)O)=C(S[C@@H]3CN[C@H](C(=O)N(C)C)C3)[C@H](C)[C@H]12 [MEM, meropenem]		
> 150 µM	4.2 µM (≈ 1.96 µg/mL)	5.9 µM (≈ 2.76 µg/mL)	> 150 µM		7.5 µM (≈ 3.51 µg/mL)	> 150 µM	3.5 µM (≈ 1.64 µg/mL)	6.9 µM (≈ 3.23 µg/mL)	> 150 µM	> 150 µM	> 150 µM	> 150 µM	> 150 µM	4.6 µM (≈ 2.15 µg/mL)	NC[C@H]1O[C@H](O[C@H]2[C@H](O)[C@@H](O[C@H]3O[C@H](CO)[C@@H](O)[C@H](N)[C@H]3O)[C@H](N)C[C@@H]2N)[C@H](N)C[C@@H]1O [TOB, tobramycin]		

More lines, now with the values behind:

Structure (SMILES)	MIC [1]	MIC ([2]; read-out: MIC, PA(mucoid))	MIC ([2]; read-out: MIC, PA(non-mucoid))	MIC [3]	MIC [4]	MIC [5, 8]	MIC ([5]; read-out: MIC, KP 6)	MIC ([5]; read-out: MIC, KP 46)	MIC ([5]; read-out: MIC, KP 398)	MIC ([5]; read-out: MIC, KP 2146NDM-1)	MIC ([5]; read-out: MIC, KP (CRE))	MIC ([5]; read-out: MIC, KP ST258 C2)	MIC ([5]; read-out: MIC, KP ST258 C3)	MIC ([5]; read-out: MIC, KP ST258 I2)	MIC ([5]; read-out: MIC, KP ST396)	Hemolysis at 100 μM (fractional hemolysis) [6]	EC50 [7]
CC(C)C[C@@H](NC(=O)[C@@H](CCCNC(=N)N)NC(=O)[C@H](N)CCCNC(=N)N)C(=O)N[C@H](C)C(=O)N[C@H](Cc1ccccc1)C(=O)N[C@H](C)C(=O)N[C@H](Cc1ccccc1)C(=O)N[C@H](CCCNC(=N)N)C(=O)N[C@H](CCCNC(=N)N)C(=O)N[C@H](Cc1c[nH]c2ccccc12)C(=O)N[C@H](C)C(=O)N[C@H](CCCNC(=N)N)C(=O)N[C@H](CCCNC(=N)N)C(N)=O [D-CONGA-FLIP] (H-[dR][dR][dL][dA][dF][dA][dF][dR][dR][dW][dA][dR][dR]-NH2; N-terminus and C-terminus assumed)																0.05	143 µM
CC(C)C[C@@H](NC(=O)CNC(=O)[C@@H](CCCNC(=N)N)NC(=O)[C@@H](CCCNC(=N)N)NC(=O)[C@@H](C)NC(=O)[C@@H](Cc1c[nH]c2ccccc12)NC(=O)[C@@H](CCCNC(=N)N)NC(=O)[C@H](N)CCCNC(=N)N)C(=O)N[C@H](C)C(=O)N[C@H](Cc1ccccc1)C(=O)N[C@H](C)C(=O)N[C@H](Cc1ccccc1)C(=O)N[C@H](CCCNC(=N)N)C(=O)N[C@H](CCCNC(=N)N)C(N)=O [D-CONGA-G7] (H-[dR][dR][dW][dA][dR][dR]G[dL][dA][dF][dA][dF][dR][dR]-NH2; N-terminus and C-terminus assumed)																0.07	235 µM
CC(C)C[C@@H](NC(=O)[C@@H](CCCCNC(=N)N)NC(=O)[C@@H](CCCCNC(=N)N)NC(=O)[C@@H](C)NC(=O)[C@@H](Cc1c[nH]c2ccccc12)NC(=O)[C@@H](CCCNC(=N)N)NC(=O)[C@H](N)CCCNC(=N)N)C(=O)N[C@H](C)C(=O)N[C@H](Cc1ccccc1)C(=O)N[C@H](C)C(=O)N[C@H](Cc1ccccc1)C(=O)N[C@H](CCCNC(=N)N)C(=O)N[C@H](CCCNC(=N)N)C(N)=O [D-CONGA-HomoR] (H-[dR][dR][dW][dA][d(hArg)][d(hArg)][dL][dA][dF][dA][dF][dR][dR]-NH2; N-terminus and C-terminus assumed)																0.06	143 µM
CC(C)C[C@@H](NC(=O)[C@@H](CCCNC(=N)N)NC(=O)[C@@H](CCCNC(=N)N)NC(=O)[C@@H](Cc1c[nH]c2ccccc12)NC(=O)[C@@H](CCCNC(=N)N)NC(=O)[C@H](N)CCCNC(=N)N)C(=O)N[C@H](C)C(=O)N[C@H](Cc1ccccc1)C(=O)N[C@H](C)C(=O)N[C@H](Cc1ccccc1)C(=O)N[C@H](CCCNC(=N)N)C(=O)N[C@H](CCCNC(=N)N)C(N)=O [D-CONGA-ΔA4] (H-[dR][dR][dW][dR][dR][dL][dA][dF][dA][dF][dR][dR]-NH2; N-terminus and C-terminus assumed)																0.02	143 µM
CC(C)C[C@@H](NC(=O)[C@@H](CCCNC(=N)N)NC(=O)[C@@H](CCCNC(=N)N)NC(=O)[C@@H](C)NC(=O)[C@@H](Cc1c[nH]c2ccccc12)NC(=O)[C@@H](CCCNC(=N)N)NC(=O)[C@H](N)CCCNC(=N)N)C(=O)N[C@H](C)C(=O)N[C@H](Cc1ccccc1)C(=O)N[C@H](Cc1ccccc1)C(=O)N[C@H](CCCNC(=N)N)C(=O)N[C@H](CCCNC(=N)N)C(N)=O [D-CONGA-ΔA10] (H-[dR][dR][dW][dA][dR][dR][dL][dA][dF][dF][dR][dR]-NH2; N-terminus and C-terminus assumed)																0.02	257 µM
